Laboratory results reported in patent US20230365616A1, “CHOLESTANE DERIVATIVES, PREPARATIONS CONTAINING THESE DERIVATIVES AND USE THEREOF” (UNIVERZITA PALACKEHO V OLOMOUCI, priority 2020, published 2023).

Columns and labels:
[1] = tested on: human neuron-like SH-SY5Y cells; assay: Neuroprotective effect on glutamate-induced oxidative damage, cell death by propidium iodide staining; format: cell-based; details: for Neuroprotective effect (% of control): co-treatment with 160 mM Glu for 24 h, difference between 160 mM Glu and co-treatment group means; for Neuroprotective effect compared with positive controls (R-LA, DFO): 160 mM Glu, 24 h
Experimental: Similarly, to the previous test the assay was performed in 96-well microplates with 20000 cells per well. Day after the seeding of cells, SH-SYSY underwent all-trans retinoic acid (ATRA)-differentiation for 48 h (ATRA 10 μM). […] […] After 24 h the cell death was quantified by propidium iodide staining according to literature (Stone et al. BMC Cell Biol. 2003, 4, 1) with modifications. In general, PI staining is associated with damaged cell membrane or presence of dying cells (Stone et al. BMC Cell Biol. 2003, 4, 1). Due to the loss of adherence, damaged or death cells were stained by PI solution directly in media at 1.5 μM final concentration and incubated at room temperature for 15-25 minutes at room temperature. PI stained cells were quantified at 535/617 nm (excitation/emission) by Infinite M200 Pro (Tecan) microplate reader. Cell death generated by 160 mM Glu was consider as 100% of cell death so that reduction in cell death (neuroprotective effect) was observed.

[2] = tested on: SH-SY5Y human neuroblastoma cell line (neuron-like phenotype); assay: Calcein AM viability test on ATRA-differentiated neuron-like SH-SY5Y cells; format: cell-based; details: 24 hours of treatment, mean of two independent experiments
Experimental: (§1) The SH-SY5Y human neuroblastoma cell line obtained purchased from ECACC (The European Collection of Authenticated Cell Cultures) was cultivated in Dulbecco's modified Eagle's Medium and Ham's F12 Nutrient Mixture (DMEM:F-12, 1:1), supplemented with 10% fetal bovine serum (FBS) and 1% penicillin and streptomycin at 37° C. in a humidified atmosphere 5% CO2, 95% air in passage limit up to ECACC+20. The assay was performed in 96-well microplate with 7000 SH-SY5Y cells per well. Next day, SH-SY5Y underwent all-trans retinoic acid (ATRA)-differentiation for 48 h (ATRA 10 μM). After 48 h, old DMEM/F12 media was removed by fresh media containing tested compounds at 0.1, 1 and 10 μM concentrations for 24 h. The tested compounds were dissolved in DMSO were added into the medium. The maximum concentration of DMSO in media was kept below 0.1% (v/v). The cell viability was measured by Calcein AM (1 mg/ml ThermoFisher) viability assay. Solution of Calcein AM in PBS (0.75 μM) was pipetted to cells and incubated for 50 minutes. After that the fluorescence was measured at 488/517 nm (excitation/emission) using microplate reader Infinite M200 (TECAN). Calcein AM assay is based on the dye-intracellular-esterase cleavage of non-fluorescent dye (Calcein AM) by living cells to fluorescent dye (Calcein), while dyeing cells that lose such ability. The values in Table 4 show % of viability, relative to control of all tested compounds. The control (medium with DMSO, <0.1% (v/v)) was postulated as 100% viability (see the first line of the table).

[3] = tested on: neuron-like SH-SY5Y cells; assay: Glutamate-induced oxidative stress, superoxide radical formation by dihydroethidium staining; format: cell-based, human; details: 4 hour co-treatment with 160 mM Glu, percentages of 160 mM Glu control, mean of three independent experiments
Experimental: Similarly as shown in previous assay, cells grew on 96 multiwell plates at density 20000 cells per well underwent differentiation and treatment procedure for glutamate model. After 4 hour co-treatment with glutamate superoxide radical's formation as marker of oxidative stress was quantified by dihydroethidium according to Kim et al. 2017, J. Med. Food, 20, 140-151 with modifications. Briefly, neuron-like SH-SYSY cells were centrifuged at 500 g for 5 minutes and 30 seconds, then media were replaced by 10 μM DHE PBS solution and kept at room temperature for 30 minutes. After 30 minutes, DHE was read at 500 nm/580 nm (excitation/emission) by Infinite M200 Pro (Tecan) microplate reader. DHE is cell permeable dye which is selective toward superoxide radical detection. Overall oxidative stress achieved by 160 mM Glu was consider as 100% so that the reduction in oxidative stress (OS reducing effect) was observed. As shown in Table 6 and FIG. 2, 160 mM Glu induced 2.6 fold increase in superoxide radical's formation.

[4] = Calcein AM viability test on ATRA-differentiated neuron-like SH-SY5Y cells; format: cell-based, human; details: human, ATRA-differentiated neuron-like SH-SY5Y neuroblastoma cells; 1 μM, 24 hours of treatment, mean of two independent experiments; read-out: Viability (% of DMSO control)
Experimental: as §1

[5] = as above; format: cell-based; details: human, ATRA-differentiated neuron-like SH-SY5Y neuroblastoma cells, 24 hours of treatment, mean of two independent experiments, read-out: Viability (% of DMSO control)

Structure (SMILES) | Neuroprotective effect (% of control) ([1]; 10 μM) | Viability (% of DMSO control) ([2]; 0.1 μM) | Viability (% of DMSO control) ([2]; 1 μM) | Viability (% of DMSO control) ([2]; 10 μM) | Superoxide radical formation (% of 160 mM glutamate control) ([3]; 1 μM) [%] | Superoxide radical formation (% of 160 mM glutamate control) ([3]; 10 μM) [%] | Neuroprotective effect (% of control) ([1]; 1 μM) | Neuroprotective effect compared with positive controls (R-LA, DFO) ([1]; 10 μM) | Neuroprotective effect (% of control) ([1]; 50 μM) | Superoxide radical formation (% of 160 mM glutamate control) ([3]; 5 μM) [%] | Superoxide radical formation (% of 160 mM glutamate control) ([3]; 50 μM) [%] | Neuroprotective effect (% of control) ([1]; 100 μM) | viability at 24 h, 1 µM [4] [%] | viability at 24 h, 5 µM ([5]; 5 μM) [%] | viability at 24 h, 50 µM ([5]; 50 μM) [%] | Superoxide radical formation (% of 160 mM glutamate control) ([3]; 100 μM) [%]
CCCC[C@@H](C)[C@H]1CC[C@H]2[C@@H]3CC(=O)[C@H]4C[C@H](O)[C@H](O)C[C@]4(C)[C@H]3CC[C@]12C [Compound 30] | 23.17 % of control | 99.41 % of DMSO control | 102.30 % of DMSO control | 104.70 % of DMSO control | 84.54 | 81.08 | – | – | – | – | – | – | – | – | – | –
CCCCC[C@@H](C)[C@H]1CC[C@H]2[C@@H]3CC(=O)[C@H]4C[C@H](O)[C@H](O)C[C@]4(C)[C@H]3CC[C@]12C [Compound 57] | 24.88 % of control | 105.90 % of DMSO control | 108.90 % of DMSO control | 117.10 % of DMSO control | 93.34 | 83.99 | 15.99 % of control | – | – | – | – | – | – | – | – | –
CC[C@@H](C)[C@H]1CC[C@H]2[C@@H]3CC(=O)[C@H]4C[C@H](O)[C@H](O)C[C@]4(C)[C@H]3CC[C@]12C [Compound 6] | 33.70 % of control | 101.30 % of DMSO control | 104.80 % of DMSO control | 122.10 % of DMSO control | 85.36 | 80.19 | 15.00 % of control | double neuroprotective effect than R-LA | – | – | – | – | – | – | – | –
O=C(O)CCCC[C@@H]1CCSS1 [R-LA, R-lipoic acid, reference compound] | – | – | – | – | – | – | – | – | 13.49 % of control | 86.72 | 83.91 | – | – | – | – | –
CC(=O)N(O)CCCCCNC(=O)CCC(=O)N(O)CCCCCNC(=O)CCC(=O)N(O)CCCCCN [DFO, deferoxamine, reference compound] | 19.94 % of control | – | – | – | – | 87.06 | – | – | – | – | – | 23.55 % of control | 106 | 106 | 110 | 92.61
CC(C)CCC[C@@H](C)[C@H]1CC[C@H]2[C@@H]3CC(=O)[C@H]4C[C@H](O)[C@H](O)C[C@]4(C)[C@H]3CC[C@]12C [Compound 111] | 26.52 % of control | 106.90 % of DMSO control | 107.80 % of DMSO control | 109.90 % of DMSO control | 89.17 | 80.21 | – | – | – | – | – | – | – | – | – | –
CCC[C@@H](C)[C@H]1CC[C@H]2[C@@H]3CC(=O)[C@H]4C[C@H](O)[C@H](O)C[C@]4(C)[C@H]3CC[C@]12C [Compound 15] | 30.08 % of control | 98.20 % of DMSO control | 106.40 % of DMSO control | 120.60 % of DMSO control | 98.27 | 85.61 | – | double neuroprotective effect than R-LA | – | – | – | – | – | – | – | –
